The record followed here is patent publication US20170152226A1, “FUNCTIONALISED AND SUBSTITUTED INDOLES AS ANTI-CANCER AGENTS” (Novogen Ltd., priority 2014, published 2017).

Like-named read-outs stand apart in the source and are kept apart here.

What all share (experiment): Anti-proliferative activity, cell-titre luminescent viability assay
What all share (assay type): cell-based

The subject of one experiment is SK-N-SH. The conditions noted are these: read-out: IC50 Neuroblastoma SK-N-SH. As to the method: (§1) The ability of compounds 3501-3540 and 3542-3545 to inhibit the proliferation of cancer cells representative of neuroblastoma, melanoma, prostate cancer, colorectal cancer, non-small cell lung carcinoma, and triple negative breast cancer was assessed. Briefly, a pre-determined number of cells as calculated from cell growth assays for each of the cell lines employed were seeded into their respective culture medium (using ATCC culture parameters—http://www.atcc.org) and cultured for 24 hours at 37° C. and 5% CO2 in 96-well culture plates. Once attached, each cell line was then exposed to increasing concentrations of each respective analogue (0.03, 0.3, 3 and 30 μM for compounds in Table 1; 0.1, 0.3, 1, 3, 10 and 30 μM for compounds in Table 2), cultured for a further 72 hours and exposed to cell-titre luminescent reagent (100 μL/well) for a further 30 min) to assess for cell viability. Luminescence was captured using an EnVision multilabel reader and the data for each analogue concentration was normalized, as a percentage, to the no treatment control. For compounds 3501, 3503, 3505-08, 3512-18, 3520, 3522-24 and 3531-36, semi-log plots of Percent of Control versus concentration were prepared and IC50 determined using linear regression analysis. For compounds 3502, 3504, 3509-11, 3519, 3521, 3525-30, 3537-40 and 3542-45, cell viability was normalized to control (vehicle alone) and dose-response curves, and half maximal effective concentration (EC50) values were determined using Graph Pad Prism 6 (nonlinear regression sigmoidal dose-response variable slope).

In another experiment the test system is MDA-MB-231. Particulars: read-out: IC50 Breast MDA-MB-231. How it is done:
as §1

The next experiment deals with PC3. The conditions noted are these: read-out: IC50 Prostate PC3. As to the method:
as §1

The test system of another experiment is CaCo2. Particulars: read-out: IC50 Colorectal CaCo2. How it is done:
as §1

The next experiment has as its system DU145. The conditions noted are these: read-out: IC50 Prostate DU145. As to the method: as §1
In the next experiment the test system is SK-Mel-28. Particulars: 72 hours, read-out: IC50 Melanoma SK-Mel-28. As to the method:
as §1

Another experiment has as its system A549. Particulars: read-out: IC50 Lung (NSLC) A549. As to the method:
as §1

Setting [1] is: Homo sapiens, SK-N-SH, 72 h, 0.1, 0.3, 1, 3, 10 and 30 μM, nonlinear regression sigmoidal dose-response (EC50).
[2] abbreviates: Homo sapiens, MDA-MB-231, 72 h, 0.1, 0.3, 1, 3, 10 and 30 μM, nonlinear regression sigmoidal dose-response (EC50).
Setting [3] is: Homo sapiens, PC-3, 72 h, 0.1, 0.3, 1, 3, 10 and 30 μM, nonlinear regression sigmoidal dose-response (EC50).
The mark [4] stands for this setting: Homo sapiens, Caco-2, 72 h, 0.1, 0.3, 1, 3, 10 and 30 μM, nonlinear regression sigmoidal dose-response (EC50).
Setting [5] is: Homo sapiens, DU-145, 72 h, 0.1, 0.3, 1, 3, 10 and 30 μM, nonlinear regression sigmoidal dose-response (EC50).
Where [6] appears, read: Homo sapiens, SK-MEL-28, 0.1, 0.3, 1, 3, 10 and 30 μM, nonlinear regression sigmoidal dose-response (EC50).
[7] abbreviates: Homo sapiens, A549, 72 h, 0.1, 0.3, 1, 3, 10 and 30 μM, nonlinear regression sigmoidal dose-response (EC50).
Setting [8] is: Homo sapiens, SK-N-SH, 72 h, 0.03, 0.3, 3 and 30 μM, linear regression of semi-log plots.
[9] abbreviates: Homo sapiens, MDA-MB-231, 72 h, 0.03, 0.3, 3 and 30 μM, linear regression of semi-log plots.
Setting [10] is: Homo sapiens, PC-3, 72 h, 0.03, 0.3, 3 and 30 μM, linear regression of semi-log plots.
[11] abbreviates: Homo sapiens, Caco-2, 72 h, 0.03, 0.3, 3 and 30 μM, linear regression of semi-log plots.
[12] abbreviates: Homo sapiens, DU-145, 72 h, 0.03, 0.3, 3 and 30 μM, linear regression of semi-log plots.
Setting [13] is: Homo sapiens, SK-MEL-28, 0.03, 0.3, 3 and 30 μM, linear regression of semi-log plots.
[14] abbreviates: Homo sapiens, A549, 72 h, 0.03, 0.3, 3 and 30 μM, linear regression of semi-log plots.
Where [15] appears, read: 72 hours, 0.03, 0.3, 3 and 30 μM, linear regression of semi-log plots.

On to `Cc1c(C)n(CCCN2CCN(C)CC2)c2ccc(Oc3ccc(C(=O)N4CCN(CCc5ccccc5)CC4)cc3)cc12` [Compound 3530], for which the IC50 with SK-N-SH (setting [1]) came out at 1.6 µM; in the experiment on MDA-MB-231 (setting [2]), 2.1 µM; in the experiment with PC3 (setting [3]), 4.8 µM; in the experiment with CaCo2 (setting [4]), 4.3 µM; in the experiment on DU145 (setting [5]), 4.5 µM; with SK-Mel-28 (setting [6]), 3.9 µM. Besides, in the experiment on A549 (setting [7]), the IC50 worked out at 2.4 µM.

For the compound `Cc1c(C)n(CCCN2CCN(C)CC2)c2ccc(Nc3ccc(C(=O)N4CCN(CCc5ccc(F)cc5)CC4)cc3)cc12` [Compound 3531, (4-((2,3-dimethyl-1-(3-(4-methylpiperazin-1-yl)propyl)-1H-indol-5-yl)amino)phenyl)(4-(4-fluorophenethyl)piperazin-1-yl)methanone], the IC50 in the experiment with SK-N-SH (setting [8]) came to 3.4 µM; in the experiment with MDA-MB-231 (setting [9]) it was 3.5 µM; with PC3 (setting [10]), 4.6 µM; in the experiment on CaCo2 (setting [11]), 4.2 µM; with DU145 (setting [12]), 3.9 µM; in the experiment on SK-Mel-28 (setting [13]), 2.8 µM. The IC50 in the experiment with A549 (setting [14]) came to 3.9 µM.

As to `COc1ccc(CCN2CCN(C(=O)c3ccc(Nc4ccc5c(c4)c(C)c(C)n5CCCN4CCN(C)CC4)cc3)CC2)cc1` [Compound 3532, (4-((2,3-dimethyl-1-(3-(4-methylpiperazin-1-yl)propyl)-1H-indol-5-yl)amino)phenyl)(4-(4-methoxyphenethyl)piperazin-1-yl)methanone], the IC50 with SK-N-SH (setting [8]) amounted to 2.3 µM; in the experiment on MDA-MB-231 (setting [9]), 1.9 µM; in the experiment on PC3 (setting [10]), 4.2 µM; in the experiment with CaCo2 (setting [15]) it was 3.1 µM; in the experiment with DU145 (setting [12]), 4 µM; with SK-Mel-28 (setting [13]) it was 2.7 µM. Besides, the IC50 with A549 (setting [14]) stood at 2.2 µM.

As to `Cc1c(C)n(CCCN2CCN(C)CC2)c2ccc(Nc3ccc(C(=O)N4CCN(CCc5ccc6c(c5)OCO6)CC4)cc3)cc12` [Compound 3533, (4-(2-(benzo[d][1,3]dioxol-5-yl)ethyl)piperazin-1-yl)(4-((2,3-dimethyl-1-(3-(4-methylpiperazin-1-yl)propyl)-1H-indol-5-yl)amino)phenyl)methanone], the IC50 amounted to 3.3 µM in the experiment on SK-N-SH (setting [8]); 4.2 µM with MDA-MB-231 (setting [9]); 3.3 µM with PC3 (setting [10]); 3.9 µM with CaCo2 (setting [11]); 3.7 µM in the experiment on DU145 (setting [12]); 4.8 µM with SK-Mel-28 (setting [13]). Also, the IC50 in the experiment on A549 (setting [14]) is 3.7 µM.

As to `COc1cccc(CCN2CCN(C(=O)c3ccc(Nc4ccc5c(c4)c(C)c(C)n5CCCN4CCN(C)CC4)cc3)CC2)c1` [Compound 3535, (4-((2,3-dimethyl-1-(3-(4-methylpiperazin-1-yl)propyl)-1H-indol-5-yl)amino)phenyl)(4-(3-methoxyphenethyl)piperazin-1-yl)methanone], the IC50 in the experiment with SK-N-SH (setting [8]) came to 2.8 µM; in the experiment on MDA-MB-231 (setting [9]) it was 2.6 µM; in the experiment with PC3 (setting [10]) it was 3.7 µM; in the experiment with CaCo2 (setting [11]), 3 µM; in the experiment with DU145 (setting [12]) it was 3.8 µM; in the experiment with SK-Mel-28 (setting [13]) it was 3.3 µM. Further, the IC50 in the experiment with A549 (setting [14]) worked out at 2.7 µM.

On to `COc1ccc(CCN2CCN(C(=O)c3ccc(Nc4ccc5c(c4)c(C)c(C)n5CCCN4CCN(C)CC4)cc3)CC2)cc1` [Compound 3536, (4-((2,3-dimethyl-1-(3-(4-methylpiperazin-1-yl)propyl)-1H-indol-5-yl)amino)phenyl)(4-(4-methoxyphenethyl)piperazin-1-yl)methanone], for which the IC50 came out at 2.9 µM with SK-N-SH (setting [15]); 2.5 µM with MDA-MB-231 (setting [15]); 4.3 µM in the experiment on PC3 (setting [15]); 12.9 µM with CaCo2 (setting [15]); 3.6 µM with DU145 (setting [15]); 2.7 µM in the experiment with SK-Mel-28 (0.03, 0.3, 3 and 30 μM, linear regression of semi-log plots). The IC50 with A549 (setting [15]) turned out to be 3.1 µM.

Turning to `Cc1c(C)n(CCCN2CCN(C)CC2)c2ccc(Cc3cccc(C(=O)N4CCN(CCc5ccc6ccccc6c5)CC4)c3)cc12` [Compound 3537, (3-((2,3-dimethyl-1-(3-(4-methylpiperazin-1-yl)propyl)-1H-indol-5-yl)methyl)phenyl)(4-(2-(naphthalen-2-yl)ethyl)piperazin-1-yl)methanone], the IC50 in the experiment with SK-N-SH (setting [1]) came to 4.2 µM; with MDA-MB-231 (setting [2]) it was 4.8 µM; with PC3 (setting [3]), 8 µM; with CaCo2 (setting [4]), 5 µM; in the experiment with DU145 (setting [5]), 5.8 µM; in the experiment on SK-Mel-28 (setting [6]), 4.8 µM. Moreover, the IC50 with A549 (setting [7]) was 3.6 µM.

Regarding `Cc1c(C)n(CCCN2CCN(C)CC2)c2ccc(Cc3cccc(C(=O)N4CCN(CCc5cccc6ccccc56)CC4)c3)cc12` [Compound 3539, (3-((2,3-dimethyl-1-(3-(4-methylpiperazin-1-yl)propyl)-1H-indol-5-yl)methyl)phenyl)(4-(2-(naphthalen-1-yl)ethyl)piperazin-1-yl)methanone], the IC50 with SK-N-SH (setting [1]) amounted to 1.7 µM; in the experiment with MDA-MB-231 (setting [2]), 2.8 µM; with PC3 (setting [3]), 3 µM; in the experiment on CaCo2 (setting [4]) it was 4.6 µM; in the experiment with DU145 (setting [5]), 3.9 µM; in the experiment on SK-Mel-28 (setting [6]), 2.2 µM. In addition, the IC50 in the experiment with A549 (setting [7]) came out at 3.9 µM.

For the compound `COc1ccc2cccc(CCN3CCN(C(=O)c4cccc(Cc5ccc6c(c5)c(C)c(C)n6CCCN5CCN(C)CC5)c4)CC3)c2c1` [Compound 3540, (3-((2,3-dimethyl-1-(3-(4-methylpiperazin-1-yl)propyl)-1H-indol-5-yl)methyl)phenyl)(4-(2-(7-methoxynaphthalen-1-yl)ethyl)piperazin-1-yl)methanone], the IC50 in the experiment with SK-N-SH (setting [1]) was 1.7 µM; in the experiment on MDA-MB-231 (setting [2]) it was 2.3 µM; in the experiment with PC3 (setting [3]), 2.3 µM; with CaCo2 (setting [4]) it was 4 µM; in the experiment with DU145 (setting [5]) it was 4.6 µM; in the experiment on SK-Mel-28 (setting [6]) it was 1.9 µM. The IC50 with A549 (setting [7]) turned out to be 5 µM.

For `Cc1c(C)n(CCCN2CCN(C)CC2)c2ccc(Cc3ccc(C(=O)N4CCN(CCc5ccc6ccccc6c5)CC4)cc3)cc12` [Compound 3542, (4-((2,3-dimethyl-1-(3-(4-methylpiperazin-1-yl)propyl)-1H-indol-5-yl)methyl)phenyl) (4-(2-(naphthalen-2-yl)ethyl)piperazin-1-yl)methanone], the IC50 in the experiment on SK-N-SH (setting [1]) came out at 1.6 µM; with MDA-MB-231 (setting [2]), 2.8 µM; in the experiment with PC3 (setting [3]), 3.6 µM; in the experiment on CaCo2 (setting [4]), 3.9 µM; in the experiment with DU145 (setting [5]), 3.9 µM; in the experiment on SK-Mel-28 (setting [6]) it was 1.4 µM. Besides, the half-inhibitory concentration (IC50) in the experiment on A549 (setting [7]) came out at 3.1 µM.

`COc1ccc2cc(CCN3CCN(C(=O)c4ccc(Cc5ccc6c(c5)c(C)c(C)n6CCCN5CCN(C)CC5)cc4)CC3)ccc2c1` [Compound 3543, (4-((2,3-dimethyl-1-(3-(4-methylpiperazin-1-yl)propyl)-1H-indol-5-yl)methyl)phenyl)(4-(2-(6-methoxynaphthalen-2-yl)ethyl)piperazin-1-yl)methanone]: the IC50 with SK-N-SH (setting [1]) turned out to be 1.6 µM; with MDA-MB-231 (setting [2]), 1.3 µM; with PC3 (setting [3]), 1.8 µM; with CaCo2 (setting [4]), 1.5 µM; in the experiment with DU145 (setting [5]), 1.7 µM; in the experiment on SK-Mel-28 (setting [6]), 2 µM. Moreover, the IC50 in the experiment on A549 (setting [7]) is 1.5 µM.

One may read the IC50 as the concentration that gives 50% inhibition.
